Experiments:
[1] = system: Enterococcus hirae ATCC 8043; assay: Quantitative suspension test EN 1276; type: cell-based; conditions: contact time 5 min, water hardness 300 mg/kg CaCO3, 20° C.
Experimental: (§1) As specified by standard EN 1276, the efficacy of N,N-bis (3-aminopropyl)octylamine (according to the invention) and N,N-bis (3-aminopropyl)dodecylamine (comparison) was determined in the presence of albumin for various test microorganisms. [table]

[2] = system: Staphylococcus aureus ATCC 6538; assay: Quantitative suspension test EN 1276; type: cell-based; conditions: contact time 5 min, water hardness 300 mg/kg CaCO3, 20° C.
Experimental: as §1

[3] = system: Escherichia coli ATCC 10536; assay: Quantitative suspension test EN 1276; type: cell-based; conditions: contact time 5 min, water hardness 300 mg/kg CaCO3, 20° C.
Experimental: as §1

[4] = system: Pseudomonas aeruginosa ATCC 15442; assay: Quantitative suspension test EN 1276; type: cell-based; conditions: contact time 5 min, water hardness 300 mg/kg CaCO3, 20° C.
Experimental: as §1

[5] = Determination of foaming (shaken mixing cylinder, foam volume read off); type: physicochemical; conditions: 250 ppm in demineralized water, 20° C.
Experimental: A 250 ml mixing cylinder was filled with 100 ml of solution. After any foam formed in the course of this had disappeared, the sealed cylinder was shaken vigorously vertically for 15 s (approximately 15×) and then placed on a flat support. The volume of the resultant foam was read off at regular time intervals.

[6] = system: Mycobacterium terrae ATCC 15755; assay: Quantitative suspension test using Mycobacterium terrae (Hygiene & Medizin 1997 method); type: cell-based; conditions: 0.3% active compound, 20° C., contact time 15 min
Experimental: Using the method described in Hygiene & Medizin 1997, 22, pp. 278-283, the activity of N,N-bis(3-amino-propyl)octylamine against Mycobacterium terrae ATCC 15755 was determined under differing organic loads. The concentration of active compound was in each case 0.3%, the temperature 20° C. and the contact time 15 min. The common logarithmic reduction in bacterial count was determined each time.

foam volume after 10 s [5] [mL]	foam volume after 60 s [5]	foam volume after a further 10 s ([5]; relative to volume at 10 s)	Compound	concentration for log. reduction >5 ([1]; 0.03% albumin) [%]	concentration for log. reduction >5 ([1]; 0.3% albumin) [%]	concentration for log. reduction >5 ([2]; 0.03% albumin) [%]	concentration for log. reduction >5 ([2]; 0.3% albumin) [%]	concentration for log. reduction >5 ([3]; 0.03% albumin) [%]	concentration for log. reduction >5 ([3]; 0.3% albumin) [%]	concentration for log. reduction >5 ([4]; 0.03% albumin) [%]	concentration for log. reduction >5 ([4]; 0.3% albumin) [%]	Log reduction in bacterial count ([6]; load: 0.3% albumin)	Log reduction in bacterial count ([6]; load: 0.5% sheep's blood)	Log reduction in bacterial count ([6]; load: none)
140	120 mL		CCCCCCCCCCCCN(CCCN)CCCN [N,N-bis(3-aminopropyl)dodecylamine, reference compound]	0.05	0.05	0.05	0.10	0.025	0.025	0.025	0.50			
20	virtually completely disappeared	decreased to half	CCCCCCCCN(CCCN)CCCN [N,N-bis(3-aminopropyl)octylamine]	0.10	0.05	0.10	0.10	0.05	0.05	0.05	0.10	4.09	4.48	4.33
